# Assay results taken from ChEMBL document CHEMBL5143704, “Discovery of 2,4-diarylaminopyrimidine derivatives bearing dithiocarbamate moiety as novel ALK inhibitors” (Bioorg Med Chem, 2022).
# Key:
# A549 = experiment: cells; conditions: Homo sapiens, A549, 96 h
# Description: Antiproliferative activity against ALK-negative human A549 cells assessed as inhibition of cell growth incubated for 96 hrs by MTT assay
# HCT-116 = experiment: cells; conditions: Homo sapiens, HCT-116, 96 h
# Description: Antiproliferative activity against ALK-negative human HCT-116 cells assessed as inhibition of cell growth incubated for 96 hrs by MTT assay
# NCI-H2228 = experiment: cells; conditions: Homo sapiens, NCI-H2228, 96 h
# Description: Antiproliferative activity against EML4-ALK positive human NCI-H2228 cells assessed as inhibition of cell growth incubated for 96 hrs by MTT assay
# KARPAS-299 = experiment: cells; conditions: Homo sapiens, KARPAS-299, 96 h
# Description: Antiproliferative activity against NPM-ALK positive human KARPAS-299 cells assessed as inhibition of cell growth incubated for 96 hrs by CCK-8 assay
# [1] = molecular target: ALK tyrosine kinase receptor (Homo sapiens, UniProt Q9UM73); experiment: Inhibition of wild type N-terminal GST tagged ALK cytoplasmic domain (1058 to 1620 end residues) (unknown origin) expressed in Sf21 cells incubated for 1 hr in presence of ATP
# Sequence of ALK tyrosine kinase receptor (Q9UM73 whole entry, the tested form may be a part): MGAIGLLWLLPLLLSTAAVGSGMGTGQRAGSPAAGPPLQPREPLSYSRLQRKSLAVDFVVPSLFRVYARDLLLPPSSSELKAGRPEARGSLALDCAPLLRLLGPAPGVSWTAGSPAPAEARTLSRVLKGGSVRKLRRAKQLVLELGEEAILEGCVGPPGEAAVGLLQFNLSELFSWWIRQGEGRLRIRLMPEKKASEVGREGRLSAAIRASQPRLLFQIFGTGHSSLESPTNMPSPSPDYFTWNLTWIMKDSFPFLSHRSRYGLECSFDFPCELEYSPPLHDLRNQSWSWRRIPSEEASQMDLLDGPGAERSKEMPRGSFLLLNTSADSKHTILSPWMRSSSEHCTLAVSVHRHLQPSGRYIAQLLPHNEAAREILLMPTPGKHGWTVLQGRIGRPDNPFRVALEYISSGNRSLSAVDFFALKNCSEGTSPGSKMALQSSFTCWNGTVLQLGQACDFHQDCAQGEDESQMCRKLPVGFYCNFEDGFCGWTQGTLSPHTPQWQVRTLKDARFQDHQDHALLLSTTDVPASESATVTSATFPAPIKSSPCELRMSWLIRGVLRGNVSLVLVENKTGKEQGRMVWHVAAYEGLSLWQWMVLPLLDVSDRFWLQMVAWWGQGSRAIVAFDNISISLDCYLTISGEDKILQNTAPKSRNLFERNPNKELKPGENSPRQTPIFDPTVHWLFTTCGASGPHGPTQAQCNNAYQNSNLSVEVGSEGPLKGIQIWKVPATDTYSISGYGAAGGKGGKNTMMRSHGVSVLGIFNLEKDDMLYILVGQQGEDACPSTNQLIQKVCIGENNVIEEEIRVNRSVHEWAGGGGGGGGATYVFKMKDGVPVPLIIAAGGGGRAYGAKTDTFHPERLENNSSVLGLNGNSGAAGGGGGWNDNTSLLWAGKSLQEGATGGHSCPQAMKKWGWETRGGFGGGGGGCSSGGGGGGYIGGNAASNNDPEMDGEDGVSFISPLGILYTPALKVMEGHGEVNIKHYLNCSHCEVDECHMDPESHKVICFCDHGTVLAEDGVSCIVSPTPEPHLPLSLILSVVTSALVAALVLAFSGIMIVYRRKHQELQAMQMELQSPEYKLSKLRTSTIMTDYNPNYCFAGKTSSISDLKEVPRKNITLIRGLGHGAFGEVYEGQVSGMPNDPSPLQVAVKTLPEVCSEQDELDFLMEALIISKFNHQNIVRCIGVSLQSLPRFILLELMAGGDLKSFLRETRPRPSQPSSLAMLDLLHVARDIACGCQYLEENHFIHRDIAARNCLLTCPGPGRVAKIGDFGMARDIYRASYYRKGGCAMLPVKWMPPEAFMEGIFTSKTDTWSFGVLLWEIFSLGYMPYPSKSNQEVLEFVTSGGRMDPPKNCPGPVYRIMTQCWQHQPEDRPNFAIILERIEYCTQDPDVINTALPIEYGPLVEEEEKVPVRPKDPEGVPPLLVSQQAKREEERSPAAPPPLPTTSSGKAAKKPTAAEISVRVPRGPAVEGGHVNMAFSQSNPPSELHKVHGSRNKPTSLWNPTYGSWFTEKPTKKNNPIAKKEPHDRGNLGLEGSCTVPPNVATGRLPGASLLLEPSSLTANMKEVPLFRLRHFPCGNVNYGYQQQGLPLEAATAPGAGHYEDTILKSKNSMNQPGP
SMILES,IC50 (A549),IC50 (HCT-116),IC50 (NCI-H2228),IC50 (KARPAS-299),IC50 [1]
Cc1cc(Nc2ncc(Cl)c(Nc3ccccc3S(=O)(=O)C(C)C)n2)c(OC(C)C)cc1C1CCN(C(=S)SCCN2CCCC2)CC1,1.72 µM,4.67 µM,0.28 µM,0.22 µM,
Cc1cc(Nc2ncc(Cl)c(Nc3ccccc3S(=O)(=O)C(C)C)n2)c(OC(C)C)cc1C1CCN(C(=O)SCC(=S)N2CCN(C3CCCC3)CC2)CC1,> 10 µM,5.81 µM,0.35 µM,1.7 µM,
Cc1cc(Nc2ncc(Cl)c(Nc3ccccc3S(=O)(=O)C(C)C)n2)c(OC(C)C)cc1C1CCN(C(=O)SCC(=S)N2CCCCC2)CC1,> 10 µM,3.36 µM,0.38 µM,0.15 µM,
Cc1cc(Nc2ncc(Cl)c(Nc3ccccc3S(=O)(=O)C(C)C)n2)c(OC(C)C)cc1C1CCN(C(=S)SCCN2CCCCC2)CC1,> 10 µM,2.45 µM,0.28 µM,0.09 µM,> 0.1 µM
Cc1cc(Nc2ncc(Cl)c(Nc3ccccc3S(=O)(=O)C(C)C)n2)c(OC(C)C)cc1C1CCN(C(=S)SCCN(C)C)CC1,> 10 µM,1.07 µM,0.18 µM,0.11 µM,
Cc1cc(Nc2ncc(Cl)c(Nc3ccccc3S(=O)(=O)C(C)C)n2)c(OC(C)C)cc1C1CCN(C(=O)SCC(=S)N2CCN(CCO)CC2)CC1,> 10 µM,1.53 µM,0.12 µM,0.08 µM,
CCN(CC)C(=S)CSC(=O)N1CCC(c2cc(OC(C)C)c(Nc3ncc(Cl)c(Nc4ccccc4S(=O)(=O)C(C)C)n3)cc2C)CC1,> 10 µM,2.51 µM,1.23 µM,0.44 µM,
Cc1cc(Nc2ncc(Cl)c(Nc3ccccc3S(=O)(=O)C(C)C)n2)c(OC(C)C)cc1C1CCN(C(=O)SCC(=S)N2CCC[C@H]2CO)CC1,> 10 µM,4.89 µM,0.22 µM,0.11 µM,
Cc1cc(Nc2ncc(Cl)c(Nc3ccccc3S(=O)(=O)C(C)C)n2)c(OC(C)C)cc1C1CCN(C(=O)SCC(=S)N2CCOCC2)CC1,> 10 µM,4.95 µM,0.65 µM,0.12 µM,
CCN1CCN(C(=S)CSC(=O)N2CCC(c3cc(OC(C)C)c(Nc4ncc(Cl)c(Nc5ccccc5S(=O)(=O)C(C)C)n4)cc3C)CC2)CC1,> 10 µM,2.06 µM,0.13 µM,0.32 µM,
Cc1cc(Nc2ncc(Cl)c(Nc3ccccc3S(=O)(=O)C(C)C)n2)c(OC(C)C)cc1C1CCN(C(=O)SCC(=S)N2CCSCC2)CC1,> 10 µM,5.28 µM,0.35 µM,0.23 µM,
Cc1cc(Nc2ncc(Cl)c(Nc3ccccc3S(=O)(=O)C(C)C)n2)c(OC(C)C)cc1C1CCN(C(=S)SCCN2CCN(C)CC2)CC1,> 10 µM,2.19 µM,0.27 µM,0.17 µM,> 0.1 µM
CCN(CC)C(=O)CSC(=S)N1CCC(c2cc(OC(C)C)c(Nc3ncc(Cl)c(Nc4ccccc4S(=O)(=O)C(C)C)n3)cc2C)CC1,> 10 µM,4.74 µM,0.86 µM,0.27 µM,
Cc1cc(Nc2ncc(Cl)c(Nc3ccccc3S(=O)(=O)C(C)C)n2)c(OC(C)C)cc1C1CCN(C(=S)SCC(=O)NC(C)C)CC1,> 10 µM,> 10 µM,0.36 µM,0.14 µM,
CCN(CC)CCCSC(=S)N1CCC(c2cc(OC(C)C)c(Nc3ncc(Cl)c(Nc4ccccc4S(=O)(=O)C(C)C)n3)cc2C)CC1,> 10 µM,> 10 µM,0.49 µM,0.5 µM,> 0.1 µM
Cc1cc(Nc2ncc(Cl)c(Nc3ccccc3S(=O)(=O)C(C)C)n2)c(OC(C)C)cc1C1CCN(C(=O)SCC(=S)N2CCN(S(C)(=O)=O)CC2)CC1,> 10 µM,3.54 µM,0.16 µM,0.34 µM,
CCN(CC)CCSC(=S)N1CCC(c2cc(OC(C)C)c(Nc3ncc(Cl)c(Nc4ccccc4S(=O)(=O)C(C)C)n3)cc2C)CC1,> 10 µM,0.98 µM,0.23 µM,0.26 µM,
Cc1cc(Nc2ncc(Cl)c(Nc3ccccc3S(=O)(=O)C(C)C)n2)c(OC(C)C)cc1C1CCN(C(=S)SCCN2CCOCC2)CC1,> 10 µM,3.78 µM,0.17 µM,0.32 µM,
Cc1cc(Nc2ncc(Cl)c(Nc3ccccc3S(=O)(=O)C(C)C)n2)c(OC(C)C)cc1C1CCN(C(=O)SCC(=S)N(C)C)CC1,> 10 µM,2.73 µM,0.85 µM,0.23 µM,
Cc1cc(Nc2ncc(Cl)c(Nc3ccccc3S(=O)(=O)C(C)C)n2)c(OC(C)C)cc1C1CCN(C(=O)SCC(=S)N(C)CCN(C)C)CC1,> 10 µM,6.55 µM,0.37 µM,0.48 µM,
Cc1cc(Nc2ncc(Cl)c(Nc3ccccc3S(=O)(=O)C(C)C)n2)c(OC(C)C)cc1C1CCNCC1 [CERITINIB],,1.07 µM,0.03 µM,,

# Continued, values first:
IC50 (A549),IC50 (HCT-116),IC50 (NCI-H2228),IC50 (KARPAS-299),IC50 [1],SMILES
> 10 µM,3.33 µM,1.32 µM,0.15 µM,,Cc1cc(Nc2ncc(Cl)c(Nc3ccccc3S(=O)(=O)C(C)C)n2)c(OC(C)C)cc1C1CCN(C(=S)SCC(=O)N2CCCCC2)CC1
> 10 µM,> 10 µM,1.6 µM,0.1 µM,,Cc1cc(Nc2ncc(Cl)c(Nc3ccccc3S(=O)(=O)C(C)C)n2)c(OC(C)C)cc1C1CCN(C(=S)SCC(=O)N2CCOCC2)CC1
> 10 µM,3.17 µM,1.21 µM,0.86 µM,,Cc1cc(Nc2ncc(Cl)c(Nc3ccccc3S(=O)(=O)C(C)C)n2)c(OC(C)C)cc1C1CCN(C(=O)SCC(=S)N2CCCC2)CC1
> 10 µM,2.84 µM,0.16 µM,0.21 µM,> 0.1 µM,Cc1cc(Nc2ncc(Cl)c(Nc3ccccc3S(=O)(=O)C(C)C)n2)c(OC(C)C)cc1C1CCN(C(=O)SCC(=S)N2CCNC(C)C2)CC1 (stereo not given)
> 10 µM,8.15 µM,0.27 µM,0.18 µM,,Cc1cc(Nc2ncc(Cl)c(Nc3ccccc3S(=O)(=O)C(C)C)n2)c(OC(C)C)cc1C1CCN(C(=S)SCC(N)=O)CC1
> 10 µM,7.83 µM,2.66 µM,0.59 µM,,Cc1cc(Nc2ncc(Cl)c(Nc3ccccc3S(=O)(=O)C(C)C)n2)c(OC(C)C)cc1C1CCN(C(=S)SCC(=O)NC2CCCCC2)CC1
> 10 µM,3.86 µM,0.63 µM,0.08 µM,,Cc1cc(Nc2ncc(Cl)c(Nc3ccccc3S(=O)(=O)C(C)C)n2)c(OC(C)C)cc1C1CCN(C(=S)SCC(=O)N2CCSCC2)CC1
> 10 µM,5.93 µM,1.54 µM,0.25 µM,,Cc1cc(Nc2ncc(Cl)c(Nc3ccccc3S(=O)(=O)C(C)C)n2)c(OC(C)C)cc1C1CCN(C(=S)SCC(=O)N(C)C)CC1
> 10 µM,5.46 µM,2.03 µM,0.31 µM,,Cc1cc(Nc2ncc(Cl)c(Nc3ccccc3S(=O)(=O)C(C)C)n2)c(OC(C)C)cc1C1CCN(C(=S)SCC(=O)N2CCC(C)CC2)CC1
> 10 µM,3.52 µM,0.41 µM,0.13 µM,,Cc1cc(Nc2ncc(Cl)c(Nc3ccccc3S(=O)(=O)C(C)C)n2)c(OC(C)C)cc1C1CCN(C(=S)SCC(=O)NC2CCCC2)CC1
> 10 µM,7.03 µM,0.45 µM,0.14 µM,,Cc1cc(Nc2ncc(Cl)c(Nc3ccccc3S(=O)(=O)C(C)C)n2)c(OC(C)C)cc1C1CCN(C(=S)SCC(=O)NC2CCC2)CC1
